{"source": "patent US20230338363A1", "about": "“COMBINATION CHEMO-IMMUNOTHERAPY FOR PANCREATIC CANCER USING THE IMMUNOGENIC EFFECTS OF AN IRINOTECAN SILICASOME NANOCARRIER PLUS ANTI-PD-1” (The Regents of the University of California, priority 2020, published 2023)", "key": {"KPC cells [1]": {"system": "KPC cells", "experiment": "Lysosomal alkalization, LysoTracker Red DND 99 confocal microscopy", "assay_type": "cell-based, mouse", "protocol": "Approximately 1.5×10^4 KPC cells were seeded in µ-Slide 8 well (ibidi, 80826). To reveal the intracellular distribution of IRIN, attached KPC cells were treated with IRIN (300 µM) for 24 h. Cell membranes were stained using an Alexa Fluor® 594 conjugated WGA dye (Invitrogen™, W11262) at 2 µg/mL for 10 minutes. After washing, the cells were visualized using a Leica SP8-MD confocal microscope under the 100× objective lens. The excitation and emission wavelengths for IRIN were 405 nm and 440~490 nm, respectively^[51]\nIRIN-treated KPC cells were washed and replenished with fresh media containing 100 nM DND-99 dye and 5 µg/mL Hoechst 33342 for nuclear staining. The cells were incubated at 37° C. for 0.5 h, followed by washing with phenol red free media. The cells were then visualized using a Leica SP8-MD confocal microscope under the 100× objective lens.\nThe of the IRIN silicasome on lysosomal alkalization was performed at drug concentrations of 75 µM and 300 µM in KPC cells. Empty silicasomes (in which a 500 µg/mL particle dose is representative of an encapsulated IRIN dose of 300 µM) was included as control. The assessment of LC3B, p62 and PD-L1 immunoblotting and IF staining were performed in KPC cells during treatment with the IRIN silicasome or empty silicasomes, as described for the free drug."}, "KPC cells [2]": {"system": "KPC cells", "experiment": "ER stress: CHOP and cleaved caspase-3 western blotting, total ROS, intracellular Ca2+ flux", "assay_type": "cell-based, mouse", "conditions": "24 h", "protocol": "Intracellular ROS production was determined by a fluorescence-based ROS Kit (Abcam, ab186027) in KPC cells. This assay measures total ROS species according to vendor’s instructions. This assay is frequently used in cell biology to show the contribution of ROS in the context of ER stress and autophagy^3. Briefly, KPC cells were treated with IRIN (300 µM), OX (500 µM) or TUN (10 µM) for 24 h. Images were captured using a fluorescence microscope. Signal intensity was quantified by Image J software. At least three representative images were analyzed for each treatment. Data represents mean ± SD, n=3. *p<0.05, ***p<0.001, compared to PBS group (1-way ANOVA followed by a Tukey’s test). Bar is 50 µm.\nIntracellular Ca^2+ flux was assessed by a Fluo 4 AM assay in KPC cells. The cells were treated with IRIN (300 µM), OX (500 µM) or TUN (10 µM) for 24 h. Images were captured using a fluorescence microscope, followed by data analysis using the Image J software. At least three representative images were analyzed for each treatment. Data represents mean ± SD, n=3. **p<0.01, ***p<0.001, compared to PBS group (1-way ANOVA followed by a Tukey’s test). Bar is 50 µm.\nKPC cells were treated with IRIN silicasome at drug dose of 75 µM and 300 µM for 24 hours. PBS and empty silicasome (that is equivalent to drug dose of 300 µM) were included as control. Ca^2+ efflux (panel A) and total ROS (panel B) measurements were performed similar to FIGS. 14 and 15. Data represents mean ± SD, n=3. *p<0.05, **p<0.001, n.s., not significant (1-way ANOVA followed by a Tukey’s test). Panel C) In a separate experiment, KPC cells were seeded in to a 6-well plate, followed by the treatment using silicasome w/wo IRIN (300 µM) for 48 hours. ER marker, CHOP protein, was assayed by western blotting similar to FIG. 2, panel A\nWestern blotting was also used to detect the ER stress marker, CHOP, and Cleaved Caspase-3 (CC-3). In this case, KPC cells were treated with IRIN at the indicated concentrations (75- 600 µM) for 24 h. In a separate experiment, KPC cells were treated with IRIN (300 µM) and tunicamycin (10 µM) for 4 h. Primary antibodies were purchased from Cell Signaling Technology: β-actin (#3700), vinculin (#13901), CHOP (#2895), and Cleaved Caspase-3 (#9664)."}, "orthotopic KPC tumor": {"system": "orthotopic KPC tumor", "experiment": "Survival experiment, IRIN silicasome plus anti-PD-1 in orthotopic KPC tumor model", "assay_type": "in vivo, mouse", "protocol": "Panel A) Explanation of the KPC model, including orthotopic implant in the pancreas and technical development of the primary tumor and metastases that can be followed by IVIS imaging. Animals were sacrificed according to the moribund criteria shown. Panel B). Details of the survival experiment in tumor-bearing mice (n = 5-7), which were treated with free IRIN or the silicasome at an IRIN dose equivalent of 40 mg/kg IV every 3- or 4-days, with or without IP administration of 100 µg anti-PD-1 antibody, for a total of six administrations. Please notice that the antibody was administered two days after IRIN injection. Saline and anti-PD-1 antibody alone were used as controls. Kaplan-Meier plots were used to display the survival rate of the different animal groups (*p<0.05, Log Rank test).\nThe KPC-derived orthotopic tumor model in immunocompetent B6129SF1/J mouse was established as described in FIG. 4, panel A. ^[16] Briefly, 30 µL of DMEM/Matrigel (1:1 v/v), containing ~1×10^6 KPC-luc cells, was injected into the tail of the pancreas in female B6129SF1/J mice (8~10 weeks) by a short survival surgery procedure.^[16] In the first survival experiment (FIG. 4, panel B), tumor-bearing mice were randomly assigned into 6 groups (n = 5-7) and received IV injection of the IRIN formulations at API dose of 40 mg/kg. Anti-PD-1 antibody was injected at 100 µg/animal IP. To assess survival rate, animals were monitored daily up to the stage of spontaneous death or approaching moribund status (defined in FIG. 4, panel A)^[16, 36]. The survival data were plotted as Kaplan-Meier curves, followed by data analysis to derive mean survival time. Statistical analysis and p values were obtained by Log Rank testing (Mantel-Cox), using GraphPad Prism 7.00 software."}, "PANC-1 cells": {"system": "PANC-1 cells", "experiment": "Confirmative cellular studies (alkalization, autophagy inhibition, PD-L1 induction)", "assay_type": "cell-based, human", "conditions": "equivalent drug concentration 300 µM, 24 hrs", "protocol": "To confirm the effect of IRIN, another PDAC cell line, i.e. PANC-1 cells, were used to study IRIN induced alkalization effect (panel A), autophagy inhibition (panel B) and PD-L1 induction (panel C). The treatments included free IRIN, IRIN silicasome and empty silicasome at equivalent drug concentration of 300 µM for 24 hrs. PBS served as a negative control. Bars: 10 µm. Signal intensity was quantified by Image J. At least three representative images were analyzed for each treatment. Data represents mean ± SD, n = 3. *p<0.05, **p<0.01, ***p<0.001 (1-way ANOVA followed by a Tukey’s test). […] No significant effect was observed when empty silicasome was tested."}}, "note": "Where a name gives a salt, the structure may show the parent alone.", "data": [{"smiles": "CCc1c2c(nc3ccc(OC(=O)N4CCC(N5CCCCC5)CC4)cc13)-c1cc3c(c(=O)n1C2)COC(=O)[C@]3(O)CC", "note": "[IRIN, Irinotecan hydrochloride trihydrate]", "values": [{"measurement": "time at which a major DND 99 signal drop is observed", "setting": "KPC cells [1]; 300 µM free IRIN", "result": 1, "unit": "h"}, {"measurement": "IRIN dose at which a major DND 99 signal drop is discerned", "setting": "KPC cells [1]; 24 hours", "result": 20, "unit": "µM"}, {"measurement": "DND 99 relative staining intensity", "setting": "KPC cells [1]; IRIN 300 µM, 24 h, untreated cells 57.9 ± 1.3, Image J", "result": "13.9 ± 0.9"}, {"measurement": "intracellular Ca2+ release (Fluo-4 AM assay)", "setting": "KPC cells [2]; IRIN 300 µM", "result": "response profile similar to ROS production"}, {"measurement": "total ROS production", "setting": "KPC cells [2]; IRIN 300 µM", "result": "robust generation ROS production"}, {"measurement": "CHOP expression (immunoblotting)", "setting": "KPC cells [2]; IRIN 75-600 µM", "result": "sizable and dose-dependent increase in CHOP expression"}, {"measurement": "cleaved caspase-3 (CC-3) expression", "setting": "KPC cells [2]; IRIN 75-600 µM", "result": "increased expression of cleaved caspase-3"}, {"measurement": "MST (median survival time)", "setting": "orthotopic KPC tumor; IRIN 40 mg/kg IV, anti-PD-1 100 µg IP, six administrations, saline 19", "result": 19, "unit": "days"}, {"measurement": "survival (Kaplan-Meier, Log Rank test)", "setting": "orthotopic KPC tumor; IRIN 40 mg/kg IV, anti-PD-1 100 µg/mouse IP", "result": "no survival benefits"}, {"measurement": "% ILS (% increase in life span, [(T - C)/C] × 100)", "setting": "orthotopic KPC tumor; vs. saline", "result": 0.0, "unit": "%"}, {"measurement": "lysosomal pH, LC-3B generation and PD-L1 expression", "setting": "PANC-1 cells", "result": "capable of neutralizing lysosomal pH, triggered LC-3B generation and increase PD-L1 expression"}]}]}
